The target in one series is T1, PI3K (p120γ) (h) (Homo sapiens, UniProt P48736).
T1 construct: purchased Millipore UK Ltd
The experiment in a line: PI3K (p120γ) (h) non-radioactive HTRF kinase assay. The series is classed as biochemical. Conditions: Kinase inhibition data; performed at Millipore UK Ltd. How it is done: (§1) The above assay procedure can be used to determine the IC50 for inhibition and/or the inhibition constant, Ki.
PI3K (p120γ) (h) [Non-Radioactive Assay]
(§2) PI3K (p120γ) (h) is incubated in assay buffer containing 10 M phosphatidylinositol-4, 5-bisphosphate and MgATP (concentration as required). The reaction is initiated by the addition of the MgATP mix. After incubation for 30 minutes at room temperature, the reaction is stopped by the addition of stop solution containing EDTA and biotinylated phosphatidylinositol-3,4,5-trisphosphate. Finally, detection buffer is added, which contains europium-labelled anti-GST monoclonal antibody, GST-tagged GRP1 PH domain and streptavidin-allophycocyanin. The plate is then read in timeresolved fluorescence mode and the homogenous time-resolved fluorescence (HTRF) signal is determined according to the formula HTRF=10000×(Em665 nm/Em620 nm).
(§3) The kinase assays described herein were performed at Millipore UK Ltd, Dundee Technology Park, Dundee DD2 1SW, UK.
(In general: Time-resolved FRET reads energy transfer from a long-lived donor to a nearby acceptor.)

Series [1] is described as follows: Compound stability in human liver microsomes. The series is classed as in vitro ADME. The note with it: for half-life at 5 μM: human liver microsomes 0.5 mg protein/mL, compound 5 μM, NADPH 1.0 mM, pH 7.4, 37° C., read-out: Human T1/2; for CLint scaled at 5 μM: liver microsomes, pH 7.4, in vivo CLint extrapolated from human liver microsome incubation. How it is done: (§4) Human or rat liver microsomes incubations were conducted in duplicate in polypropylene tubes. The typical incubation mixtures consisted of human or rat liver microsomes (0.5 mg protein/mL), compounds of interest (5 μM) and NADPH (1.0 mM) in a total volume of 200 μL potassium phosphate buffer (PBS, 100 mM, pH 7.4). Compounds were dissolved in DMSO and diluted with PBS such that the final concentration of DMSO was 0.05%. The enzymatic reactions were commenced with the addition of protein after a 3-min preincubation and incubated in a water bath open to the air at 37° C. Reactions were terminated at various time points (0, 5, 10, 15, 30, 60 min) by adding equal volume of ice-cold acetonitrile. The samples were stored at −80° C. until LC/MS/MS assays.
(§5) The concentrations of compounds in the incubation mixtures of human or rat liver microsomes were determined by a LC/MS/MS method. The ranges of the linearity in the concentration range were determined for each tested compounds.
(§6) A parallel incubation was performed using denatured microsomes as the negative control, and reactions were terminated at various time points (0, 15, 60 min) after incubation at 37° C.
(§7) Dextromethorphan (70 μM) was selected as the positive control, and reactions were terminated at various time points (0, 5, 10, 15, 30, 60 min) after incubation at 37° C. Both positive and negative control samples were included in each assay to ensure the integrity of the microsomal incubation system.
(§8) The concentrations of compounds in human or rat liver microsome incubations were plotted as a percentage of the relevant zero time point control for each reaction. The in vivo CLint were extrapolated (ref.: Naritomi, Y.; Terashita, S.; Kimura, S.; Suzuki, A.; Kagayama, A.; and Sugiyama, Y.; Prediction of human hepatic clearance from in vivo animal experiments and in vitro metabolic studies with liver microsomes from animals and humans. Drug Metab. Dispos., 2001, 29: 1316-1324).

Series [2] is described as follows: Compound stability in rat liver microsomes. The series is classed as in vitro ADME. The note with it: for CLint scaled at 5 μM: liver microsomes, pH 7.4, in vivo CLint extrapolated from rat liver microsome incubation; for half-life at 5 μM: rat liver microsomes 0.5 mg protein/mL, compound 5 μM, NADPH 1.0 mM, pH 7.4, 37° C., read-out: Rat T1/2. As to the method: as §4, §5, §6, §7, §8

The next series has as its target T2, PI3K (p110α/p85α) (h) (Homo sapiens, UniProt P42336).
T2 construct: purchased Millipore UK Ltd
The experiment in a line: PI3K (p110α/p85α) (h) non-radioactive HTRF kinase assay. The note with it: Kinase inhibition data; performed at Millipore UK Ltd. In kind it is biochemical. As to the method: as §1
PI3K (p110α/p85α) (h) [Non-Radioactive Assay]
as §2, with “(p110α/p85α)” for “(p120γ)”, “μM phosphatidylinositol 4,5-bisphosphate” for “M phosphatidylinositol-4, 5-bisphosphate”, “ATP solution.” for “MgATP mix.”, “streptavidin allophycocyanin.” for “streptavidin-allophycocyanin.”
as §3

Another series deals with T3, PI3K (h) p110β/p85α (Homo sapiens, UniProt P42338).
T3 construct: purchased Millipore UK Ltd
The experiment in a line: PI3K (p110β/p85α) (h) non-radioactive HTRF kinase assay. The series is classed as biochemical. The note with it: Kinase inhibition data; performed at Millipore UK Ltd.

Series [3] can be described thus: Pharmacokinetics after intravenous and oral administration in rats. The series is classed as in vivo. The note with it: for CL/F / bioavailability: Rats; for CL/F: iv dosing, dose 1 mg/kg (0.5 for Ex. 1, 10, 11, 35; 0.48 for Ex. 24); for AUC(0-t) / half-life / Vd / bioavailability: rat, plasma; for AUC(0-t) / half-life / Vd: iv, 1 mg/kg; for Vd: read-out: Vss; for bioavailability: oral (p.o.) generally 5 or 10 mg/kg versus iv dosing. The method in brief: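 Dosing used solution, suspension or capsule formulations: 1 or 2 mg/kg IV in all species; PO 5 or 10 mg/kg in mice and rats, 10 mg/kg in dogs and monkeys. Plasma sampled from 0.083 or 0.25 h up to 24 h post-dose; concentrations determined by LC/MS/MS in MRM mode.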

A further series concerns the target T4, PI3K (p110δ/p85α) (h) (Homo sapiens, UniProt O00329).
T4 construct: purchased Millipore UK Ltd
The experiment in a line: PI3K (p110δ/p85α) (h) non-radioactive HTRF kinase assay. In kind it is biochemical. Conditions: Kinase inhibition data; performed at Millipore UK Ltd. As to the method:
as §1
PI3K (p110δ/p85α) (h) [Non-Radioactive Assay]
as §2, with “PI3K (p110δ/p85α)” for “PI3K (p120γ)”, “10 μM” for “10 M”
as §3

Molecules are shown by their SMILES.

T3 sequence (P42338 whole entry): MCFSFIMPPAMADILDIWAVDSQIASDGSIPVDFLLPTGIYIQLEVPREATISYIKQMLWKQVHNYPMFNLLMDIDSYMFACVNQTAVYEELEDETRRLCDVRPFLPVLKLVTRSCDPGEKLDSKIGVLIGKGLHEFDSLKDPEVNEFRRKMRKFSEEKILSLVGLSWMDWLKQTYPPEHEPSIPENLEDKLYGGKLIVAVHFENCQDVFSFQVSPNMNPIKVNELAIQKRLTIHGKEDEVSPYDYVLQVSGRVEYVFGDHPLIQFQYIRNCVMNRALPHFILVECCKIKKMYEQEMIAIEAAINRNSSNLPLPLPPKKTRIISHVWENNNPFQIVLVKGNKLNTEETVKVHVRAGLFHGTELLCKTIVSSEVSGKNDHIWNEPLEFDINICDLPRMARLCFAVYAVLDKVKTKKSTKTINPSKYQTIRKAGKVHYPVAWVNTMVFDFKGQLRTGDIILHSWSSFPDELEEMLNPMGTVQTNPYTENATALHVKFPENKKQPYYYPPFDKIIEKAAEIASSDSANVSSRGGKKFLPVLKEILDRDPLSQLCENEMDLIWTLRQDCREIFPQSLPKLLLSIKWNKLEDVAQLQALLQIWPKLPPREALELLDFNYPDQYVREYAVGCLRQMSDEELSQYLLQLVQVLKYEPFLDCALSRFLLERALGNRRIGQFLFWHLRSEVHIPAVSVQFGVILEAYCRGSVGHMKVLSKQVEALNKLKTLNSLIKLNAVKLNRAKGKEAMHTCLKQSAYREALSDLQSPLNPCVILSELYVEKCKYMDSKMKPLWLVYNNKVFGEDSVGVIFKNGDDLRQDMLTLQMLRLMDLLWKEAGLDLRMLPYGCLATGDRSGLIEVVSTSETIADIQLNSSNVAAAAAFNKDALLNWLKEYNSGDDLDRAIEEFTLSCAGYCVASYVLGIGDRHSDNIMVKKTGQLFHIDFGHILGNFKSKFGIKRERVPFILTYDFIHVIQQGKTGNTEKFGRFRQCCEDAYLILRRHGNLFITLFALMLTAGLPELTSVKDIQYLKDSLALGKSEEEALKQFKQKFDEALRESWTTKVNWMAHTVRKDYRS
T3 sequence (P27986 whole entry partner): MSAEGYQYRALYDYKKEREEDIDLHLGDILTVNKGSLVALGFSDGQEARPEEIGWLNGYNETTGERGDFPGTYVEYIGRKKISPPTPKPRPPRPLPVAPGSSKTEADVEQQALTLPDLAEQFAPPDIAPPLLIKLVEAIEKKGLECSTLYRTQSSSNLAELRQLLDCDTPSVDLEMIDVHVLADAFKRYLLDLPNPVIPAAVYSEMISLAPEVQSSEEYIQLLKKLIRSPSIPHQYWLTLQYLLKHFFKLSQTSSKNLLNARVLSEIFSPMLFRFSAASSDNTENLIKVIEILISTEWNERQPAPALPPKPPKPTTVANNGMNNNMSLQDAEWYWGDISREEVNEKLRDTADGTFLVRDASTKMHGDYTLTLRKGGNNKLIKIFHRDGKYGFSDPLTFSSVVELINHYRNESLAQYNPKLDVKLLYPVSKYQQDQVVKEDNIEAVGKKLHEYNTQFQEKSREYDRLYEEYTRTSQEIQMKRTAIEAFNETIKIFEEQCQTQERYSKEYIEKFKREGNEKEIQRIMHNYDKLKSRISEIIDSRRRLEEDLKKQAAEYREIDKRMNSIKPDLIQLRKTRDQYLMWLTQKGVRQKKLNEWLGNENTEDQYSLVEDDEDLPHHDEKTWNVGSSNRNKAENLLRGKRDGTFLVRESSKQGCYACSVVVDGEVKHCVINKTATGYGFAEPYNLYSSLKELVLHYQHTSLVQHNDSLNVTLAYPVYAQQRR
T2 sequence (P42336 whole entry): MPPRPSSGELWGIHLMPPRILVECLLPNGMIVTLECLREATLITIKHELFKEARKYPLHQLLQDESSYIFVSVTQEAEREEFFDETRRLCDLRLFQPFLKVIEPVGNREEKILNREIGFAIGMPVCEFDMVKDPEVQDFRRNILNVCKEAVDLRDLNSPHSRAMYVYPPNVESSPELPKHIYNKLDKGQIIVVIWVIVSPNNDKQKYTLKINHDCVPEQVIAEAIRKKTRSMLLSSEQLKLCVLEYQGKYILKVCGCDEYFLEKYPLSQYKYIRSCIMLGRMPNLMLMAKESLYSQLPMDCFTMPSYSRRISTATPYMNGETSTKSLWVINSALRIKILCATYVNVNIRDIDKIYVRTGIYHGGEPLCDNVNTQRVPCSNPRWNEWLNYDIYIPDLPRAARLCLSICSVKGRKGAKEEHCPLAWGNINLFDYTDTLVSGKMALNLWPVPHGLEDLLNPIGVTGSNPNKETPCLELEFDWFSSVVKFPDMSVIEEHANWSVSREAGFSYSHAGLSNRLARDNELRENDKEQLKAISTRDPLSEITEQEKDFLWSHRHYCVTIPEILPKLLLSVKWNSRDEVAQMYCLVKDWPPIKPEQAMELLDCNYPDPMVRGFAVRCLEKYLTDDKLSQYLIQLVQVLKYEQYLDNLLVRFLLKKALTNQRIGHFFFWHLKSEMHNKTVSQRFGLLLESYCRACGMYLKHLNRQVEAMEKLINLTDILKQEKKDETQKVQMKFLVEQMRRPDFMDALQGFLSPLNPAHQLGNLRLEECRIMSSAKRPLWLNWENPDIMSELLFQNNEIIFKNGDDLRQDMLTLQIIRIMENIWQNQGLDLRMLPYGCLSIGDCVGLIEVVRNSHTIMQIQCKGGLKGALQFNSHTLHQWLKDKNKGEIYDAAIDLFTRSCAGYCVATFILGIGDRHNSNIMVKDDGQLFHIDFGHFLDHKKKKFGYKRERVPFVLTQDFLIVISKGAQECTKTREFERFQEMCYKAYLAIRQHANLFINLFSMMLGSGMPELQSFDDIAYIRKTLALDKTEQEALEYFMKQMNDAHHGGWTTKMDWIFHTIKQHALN
T2 sequence (P27986 whole entry partner): as the sequence (P27986 whole entry partner) above
T1 sequence (P48736 whole entry): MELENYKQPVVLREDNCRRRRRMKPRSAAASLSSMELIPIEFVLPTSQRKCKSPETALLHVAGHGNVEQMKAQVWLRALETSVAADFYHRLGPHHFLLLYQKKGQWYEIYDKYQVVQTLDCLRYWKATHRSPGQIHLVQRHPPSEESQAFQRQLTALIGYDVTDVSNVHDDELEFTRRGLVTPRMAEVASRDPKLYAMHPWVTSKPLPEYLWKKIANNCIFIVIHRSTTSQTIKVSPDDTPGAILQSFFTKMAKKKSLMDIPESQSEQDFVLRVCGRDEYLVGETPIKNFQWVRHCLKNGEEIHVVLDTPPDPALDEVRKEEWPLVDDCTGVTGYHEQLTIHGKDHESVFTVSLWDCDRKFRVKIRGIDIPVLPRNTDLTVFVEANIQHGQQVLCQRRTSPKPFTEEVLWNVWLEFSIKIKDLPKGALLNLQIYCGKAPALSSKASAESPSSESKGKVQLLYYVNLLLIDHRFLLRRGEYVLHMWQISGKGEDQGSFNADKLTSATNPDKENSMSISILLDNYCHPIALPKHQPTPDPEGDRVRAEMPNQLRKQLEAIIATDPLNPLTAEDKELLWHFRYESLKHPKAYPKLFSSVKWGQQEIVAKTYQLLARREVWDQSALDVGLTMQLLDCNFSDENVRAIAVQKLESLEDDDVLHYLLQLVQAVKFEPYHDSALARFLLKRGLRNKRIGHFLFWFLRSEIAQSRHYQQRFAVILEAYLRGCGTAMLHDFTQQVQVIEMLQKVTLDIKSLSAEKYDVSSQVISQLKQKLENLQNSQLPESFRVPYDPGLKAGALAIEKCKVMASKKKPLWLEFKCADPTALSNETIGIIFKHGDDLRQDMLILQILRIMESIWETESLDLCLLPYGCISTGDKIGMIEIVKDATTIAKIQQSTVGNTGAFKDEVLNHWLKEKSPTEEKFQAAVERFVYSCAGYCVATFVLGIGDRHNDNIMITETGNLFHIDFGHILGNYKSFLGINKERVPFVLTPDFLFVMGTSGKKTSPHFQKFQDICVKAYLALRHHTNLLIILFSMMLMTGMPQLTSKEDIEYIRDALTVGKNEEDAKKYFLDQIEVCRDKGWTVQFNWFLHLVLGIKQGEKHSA
T4 sequence (O00329 whole entry): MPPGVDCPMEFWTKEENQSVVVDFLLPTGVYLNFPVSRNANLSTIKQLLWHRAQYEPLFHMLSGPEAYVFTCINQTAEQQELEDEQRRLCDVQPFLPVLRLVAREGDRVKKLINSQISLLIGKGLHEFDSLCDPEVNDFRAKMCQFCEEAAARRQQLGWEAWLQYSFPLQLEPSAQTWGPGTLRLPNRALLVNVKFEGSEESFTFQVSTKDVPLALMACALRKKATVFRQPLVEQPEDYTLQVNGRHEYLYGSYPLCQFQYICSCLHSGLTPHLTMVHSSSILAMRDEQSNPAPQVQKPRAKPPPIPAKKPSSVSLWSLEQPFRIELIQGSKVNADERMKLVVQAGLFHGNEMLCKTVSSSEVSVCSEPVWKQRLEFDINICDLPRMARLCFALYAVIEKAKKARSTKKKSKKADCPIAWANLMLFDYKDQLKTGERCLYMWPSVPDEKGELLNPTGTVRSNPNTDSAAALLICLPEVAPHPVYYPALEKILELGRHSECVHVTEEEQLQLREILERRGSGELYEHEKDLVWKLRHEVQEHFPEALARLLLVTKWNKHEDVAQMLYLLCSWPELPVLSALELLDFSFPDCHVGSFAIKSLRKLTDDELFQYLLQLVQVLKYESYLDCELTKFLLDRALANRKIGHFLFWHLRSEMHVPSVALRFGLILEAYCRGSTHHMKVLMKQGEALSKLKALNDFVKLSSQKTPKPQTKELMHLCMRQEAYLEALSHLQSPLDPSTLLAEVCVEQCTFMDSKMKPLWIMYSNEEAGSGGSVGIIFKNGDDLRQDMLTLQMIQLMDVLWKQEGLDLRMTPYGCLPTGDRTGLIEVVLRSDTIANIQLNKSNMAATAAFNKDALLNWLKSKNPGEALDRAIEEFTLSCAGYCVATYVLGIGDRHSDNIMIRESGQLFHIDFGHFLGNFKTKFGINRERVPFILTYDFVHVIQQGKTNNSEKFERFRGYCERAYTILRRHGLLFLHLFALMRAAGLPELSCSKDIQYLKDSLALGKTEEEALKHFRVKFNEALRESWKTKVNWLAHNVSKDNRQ
T4 sequence (P27986 whole entry partner): as the sequence (P27986 whole entry partner) above

Consider `Cc1noc(-c2c(N)ncnc2N[C@@H](C)c2nc3cccc(-c4cnn(C)c4)c3c(=O)n2C2CC2)n1` [Ex. 66, (S)-2-(1-((6-amino-5-(3-methyl-1,2,4-oxadiazol-5-yl)pyrimidin-4-yl)amino)ethyl)-3-cyclopropyl-5-(1-methyl-1H-pyrazol-4-yl)quinazolin-4(3H)-one], for which the IC50 (as a rule, the midpoint of a concentration-inhibition curve) on PI3K (p120γ) (h) came to 878 nM. Further, in series [1], the half-life at 5 μM was 1.11 h and the CLint scaled (usually the rate of metabolic loss divided by the concentration) at 5 μM is 26.2 mL/min/kg. Also, in series [2], the CLint scaled at 5 μM was 15.2 mL/min/kg and the half-life at 5 μM was 2.73 h. The IC50 on PI3K (p110α/p85α) (h) is 2180 nM. The IC50 on PI3K (h) p110β/p85α turned out to be 1800 nM. Further, in series [3], the CL/F – broadly, the apparent clearance, not corrected for the fraction that reaches the circulation – turned out to be 39.3 mL/min/kg; the AUC(0-t) (in general, the area under the concentration-time curve up to a stated or last time point) is 423 ng·h/mL; the half-life was 0.98 h; the Vd worked out at 2.98 L/kg. Also, in series [3], the bioavailability (commonly the share of a dose that reaches the circulation, judged against a reference dose that is usually intravenous) was 96.2%. For the same compound, the IC50 at PI3K (p110δ/p85α) (h) was 16 nM.

`Cc1noc(-c2c(N)ncnc2N[C@@H](C)c2nc3cccc(-c4cnn(C)c4)c3c(=O)n2-c2ccccc2)n1` [Ex. 68, (S)-2-(1-((6-amino-5-(3-methyl-1,2,4-oxadiazol-5-yl)pyrimidin-4-yl)amino)ethyl)-5-(1-methyl-1H-pyrazol-4-yl)-3-phenylquinazolin-4(3H)-one]: the IC50 on PI3K (p120γ) (h) stood at 92 nM. Moreover, in series [1], the half-life at 5 μM came to 1.22 h and the intrinsic clearance (CLint scaled) at 5 μM was 23.8 mL/min/kg. Besides, in series [2], the CLint scaled at 5 μM was 17.6 mL/min/kg and the half-life at 5 μM came to 2.36 h. Moreover, on PI3K (p110α/p85α) (h), the IC50 amounted to 1420 nM. The half-maximal inhibitory concentration (IC50) on PI3K (h) p110β/p85α came out at 1180 nM. Also, in series [3], the apparent clearance (CL/F) came out at 5.83 mL/min/kg, the AUC(0-t) amounted to 2690 ng·h/mL, the half-life is 1.8 h and the Vd came out at 0.89 L/kg. Also, the bioavailability in series [3] was 70%. Moreover, the half-maximal inhibitory concentration (IC50) on PI3K (p110δ/p85α) (h) was determined as 4 nM.

In the case of `Cc1nnc(-c2c(N)ncnc2N[C@@H](C)c2nc3cccc(-c4cnn(C)c4)c3c(=O)n2-c2ccccc2)o1` [Ex. 69, (S)-2-(1-((6-amino-5-(5-methyl-1,3,4-oxadiazol-2-yl)pyrimidin-4-yl)amino)ethyl)-5-(1-methyl-1H-pyrazol-4-yl)-3-phenylquinazolin-4(3H)-one], the IC50 at PI3K (p120γ) (h) is 1170 nM. In series [1], the half-life at 5 μM was found to be 2.31 h and the CLint scaled at 5 μM is 12.6 mL/min/kg. In addition, in series [2], the intrinsic metabolic clearance (CLint scaled) at 5 μM was 9.99 mL/min/kg and the half-life at 5 μM was 4.14 h. Besides, the IC50 on PI3K (p110α/p85α) (h) is above 3000 nM. The IC50 at PI3K (h) p110β/p85α was above 3000 nM. In addition, in series [3], the CL/F was found to be 15 mL/min/kg, the exposure AUC(0-t) was 1100 ng·h/mL, the half-life was 1.25 h and the Vd is 1.54 L/kg. In series [3], this compound had a bioavailability of 83%. Besides, the half-inhibitory concentration (IC50) at PI3K (p110δ/p85α) (h) is 22 nM.

On to `CC[C@H](Nc1ncnc(N)c1-c1nc(C)no1)c1nc2cccc(-c3cnn(C)c3)c2c(=O)n1C1CC1` [Ex. 71, (S)-2-(1-((6-amino-5-(3-methyl-1,2,4-oxadiazol-5-yl)pyrimidin-4-yl)amino)propyl)-3-cyclopropyl-5-(1-methyl-1H-pyrazol-4-yl)quinazolin-4(3H)-one], for which, at PI3K (p120γ) (h), the half-maximal inhibitory concentration (IC50) amounted to 479 nM. In addition, the half-maximal inhibitory concentration (IC50) at PI3K (p110α/p85α) (h) worked out at 1320 nM. Also, the half-inhibitory concentration (IC50) at PI3K (h) p110β/p85α came out at 752 nM. In series [3], the apparent clearance (CL/F) amounted to 64 mL/min/kg, the exposure AUC(0-t) came to 256 ng·h/mL, the half-life was 1.07 h and the Vd turned out to be 4.9 L/kg. The bioavailability in series [3] was 85.5%. For the same compound, the IC50 at PI3K (p110δ/p85α) (h) worked out at 16 nM.

For `CC[C@H](Nc1ncnc(N)c1-c1nnc(C)o1)c1nc2cccc(-c3cnn(C)c3)c2c(=O)n1C1CC1` [Ex. 72, (S)-2-(1-((6-amino-5-(5-methyl-1,3,4-oxadiazol-2-yl)pyrimidin-4-yl)amino)propyl)-3-cyclopropyl-5-(1-methyl-1H-pyrazol-4-yl)quinazolin-4(3H)-one], at PI3K (p120γ) (h), the IC50 is above 3000 nM. The IC50 at PI3K (p110α/p85α) (h) is above 3000 nM. Besides, the 50% inhibitory concentration (IC50) on PI3K (h) p110β/p85α is above 3000 nM. In series [3], the apparent clearance (CL/F) was found to be 65.8 mL/min/kg, the AUC(0-t) is 270 ng·h/mL, the half-life was 0.98 h and the Vd turned out to be 3.85 L/kg. For the same compound, in series [3], the bioavailability came out at 35.9%. In addition, the IC50 at PI3K (p110δ/p85α) (h) was 142 nM.

These data come from patent US9518046B2 (Calitor Sciences, LLC, priority 2015, dated 2016).
